Patent US9023408B2, “Composition and method for control of diabetes” (Meyer Nutriceuticals LLC, priority 2009, dated 2015)

Key:
[1] = U.S.P. in vitro dissolution test (rotating basket); details: uncoated cores of CTM #3
[2] = human, in vivo
Description: An additional gram of pellets was added to the dose; and the additional pellets had been surface-labeled with 99m-Tc-polymethylmethacrylate (these additional pellets could not release their contents), so that the positions of the pellets with time could be followed with a gamma camera. The releasing pellets also contained 5% (w/w) APAP which is rapidly and completely absorbed from small or large bowel, even in the presence of food. The APAP served as a pharmacokinetic marker. Subjects ate a free-choice meal at 241 min. Finally, PYY levels (see FIG. 4b) were followed on CTM and also on control days when four of the eight subjects shown in FIG. 4a consumed the standard breakfast at t=0 and a free choice lunch at t=241 min, but no pellets of CTM #3. Because lauric acid released from CTM #3 cannot be distinguished in plasma from dietary and endogenous lauric acid, assays of plasma PYY served as a surrogate for the release of bioactive lauric acid, which is known to be a potent stimulus of secretion of PYY and GLP-1 from L cells. To compare the time-courses of basal subtracted PYY measurements with those of APAP, analytical values for APAP were scaled up so that they equaled the peak PYY at 300 min.
From 240-300 minutes, the pellets began to empty from the ileum, so that by 300 min, there were few pellets in the small bowel, and the majority of pellets was now in the colon. […]

GLP-1 = experiment: Placebo-controlled double-blinded study in type 2 diabetes: plasma GLP-1; design: species or system human; details: in vivo
Description: FIGS. 6 and 7 depict the effect of CTM #3 versus placebo on blood glucose in a randomized, placebo-controlled, double-blinded study in 10 subjects with mild to moderate type 2 diabetes. After an overnight fast, subjects ingested 10 g of placebo pellets or CTM #3 pellets with the same standard breakfast as above (415 kcal; 71 g of carbohydrate) followed by a standard lunch at 240 min (708 kcal; 89 g of carbohydrate). […] The higher calorie lunch raised GLP-1s more than the breakfast on placebo days; and the CTM raised the post lunch GLP-1s even more. […] Using a similar calculation as used above for PYY, the per-calorie effectiveness of the lauric acid in CTM #3 in boosting the GLP-1 response to the meal was 77 times that of the calories in the breakfast.
For comparisons, the APAP levels have been scaled up so that their value equaled that of the GLP-1 peak at 270 min. […] The diabetic subjects were older than the normal subjects, and four of them had mild vagal neuropathy which might have contributed to slower gastric emptying. […]
The GLP-1 values (vertical axis) following the CTM treatment are expressed as a percent of the corresponding value at each time point following the placebo treatment, so that any value above the horizontal 100% line represents the effect of lauric acid released from the CTM #3. […]

## CCCCCCCCCCCC(=O)O [lauric acid]
[1]; pH 6.2
  solubility in simulated bile (bile salts and lecithin) at pH 6.2: only half as soluble as maltose
[1]; pH 6.2 1 h then pH 7.2 3 h
  solubility compared with maltose, bile-free medium: much less soluble than maltose
[1]; pH 7.2
  solubility in simulated bile (bile salts and lecithin) at pH 7.2: as soluble as maltose or APAP
[2]
  duration of slow release from the dosage form after ingestion: 330 to 360 min
GLP-1
  per calorie potency relative to dietary nutrients in releasing GLP-1 and PYY: 77-150 times
